In patent US8415367B2, “Pyrimidinylpiperidinyloxypyridinone analogues as GPR119 modulators” (Bristol-Myers Squibb Company, priority 2010, dated 2013):
Like-named read-outs stand apart in the source and are kept apart here.

Tests used:
male C57BL/6J mice = assay: Mouse oral glucose tolerance test; format: in vivo; conditions: for Minimally efficacious Dose / Glucose Lowering: oral; for Minimally efficacious Dose: given 60 min before glucose load (2 g/kg), oGTT in C57BL/6J mice; for Glucose Lowering: plasma glucose AUC change vs vehicle at the minimally efficacious dose
Protocol: Mouse Oral Glucose Tolerance Test
Twenty four (24) male C57BL/6J mice (8-10 weeks old, average weight 28 g) were randomized into 4 groups (1 mouse/cage) of 6 mice per group based on fed plasma glucose and body weight. Prior to initiating the study, mice were fasted overnight and the next morning they were weighed and placed in the experimental lab. After 30 min in the environment, the mice were bled via tail tip at −60 min and immediately given their first oral administration of vehicle (40% PEG400, 10% Cremophor EL, 50% water) or compound solutions (5 ml/kg). At time 0 the mice were bled and given 50% glucose (2 g/kg) to initiate the oral glucose tolerance test (oGTT). The mice were bled 30, 60 and 120 min after the glucose load. Blood samples were drawn into potassium EDTA, placed on ice during the study and subsequently centrifuged for 10 min at 3000 rpm at 4° C. Plasma samples were diluted 11-fold for glucose analysis in the COBAS MIRA® System (Roche Diagnostics). Area under the curve was calculated from the plasma glucose time course data using the trapezoid rule with fasting plasma glucose as the baseline (GraphPad Prism Software). The statistical significance of the changes in the glucose AUCs resulting from the different treatments was determined by one-way ANOVA followed by Dunnett's test using the vehicle group as the control (JMP software, release 5.1.2).
Find below in Table 6 data for compared compounds (See WO 2009/012275 A1).

in vitro = conditions: human, microsomes, pH 7.4
Protocol: (§1) Metabolic Stability in Liver Microsomes Test
(§2) Human liver microsomes were purchased from BD-Biosciences (Woburn, Mass.). The test compound was received as a 3.5 mM stock solution in 100 percent dimethyl sulfoxide (“DMSO”, Sigma Aldritch). […] The test compound, β-nicotinamide adenine dinucleotide phosphate (“NADPH”, AppliChem Inc.) and liver microsome solutions are combined for incubation in three steps:
(§3) 1) 450 μl of liver microsome suspension, protein concentration of 1.1 mg/ml in 100 mM sodium (+)/phosphate (“NaPi”, pH 7.4, Sigma Aldritch) buffer, 5 mM magnesium chloride (“MgCl2, Sigma Aldritch) buffer, is pre-warmed at 37° C.;
(§4) 3) The reaction is initiated by the addition of 50 μl of pre-warmed 10 mM NADPH solution in 100 mM NaPi, pH 7.4.
(§5) Reaction components are mixed well and then 65 μl are immediately transferred into 130 μl of quench/stop solution (zero-time point, T0). […] ACN containing Internal Standard (100 ng/ml), is used as the quench solution to terminate metabolic reactions. The quenched mixtures are centrifuged at 1500 rpm (˜500×g) in an Allegra X-12 centrifuge, SX4750 rotor (Beckman Coulter Inc., Fullerton, Calif.) for fifteen minutes to pellet denatured microsomes. A volume of 90 μl of supernatant extract, containing the mixture of parent compound and its metabolites, is then transferred to a separate 96-well plate for LC/MS-MS analysis to determine the percent of parent compound that is remaining in the mixture. Peak integration is performed on all samples using the Hepatic Clearance Calculator of QuickCalc by Gubbs, Inc. The percent remaining calculation is performed by comparing the LC-MS/MS peak areas from the samples at each time point to those from the T0 samples for each compound.

[1] = target: T1, human-mouse chimeric GPR119 (Homo sapiens, UniProt Q8TDV5, A235T/C313R/C323Y/E253K/F304I/F307L/G211A/G245S/H255C/K284R/L224V/L258Q/L288Q/L301F/P218V/P318T/Q252H/R262K/S214P/S219N/S228A/S309P/S322A/T217S/T239S/V227I/V300F); assay: Tet-inducible cAMP assay (cAMP accumulation, HTRF); format: cell-based
T1 construct: the first 198 amino acids of human GPR119; the C-terminal 137 amino acids of the mouse receptor; expressed in transfected cells
T1 sequence (Q8TDV5 with tags, fused parts or gaps G211A/S214P/T217S/P218V/S219N/L224V/V227I/S228A/A235T/T239S/G245S/Q252H/E253K/H255C/L258Q/R262K/K284R/L288Q/V300F/L301F/F304I/F307L/S309P/C313R/P318T/S322A/C323Y): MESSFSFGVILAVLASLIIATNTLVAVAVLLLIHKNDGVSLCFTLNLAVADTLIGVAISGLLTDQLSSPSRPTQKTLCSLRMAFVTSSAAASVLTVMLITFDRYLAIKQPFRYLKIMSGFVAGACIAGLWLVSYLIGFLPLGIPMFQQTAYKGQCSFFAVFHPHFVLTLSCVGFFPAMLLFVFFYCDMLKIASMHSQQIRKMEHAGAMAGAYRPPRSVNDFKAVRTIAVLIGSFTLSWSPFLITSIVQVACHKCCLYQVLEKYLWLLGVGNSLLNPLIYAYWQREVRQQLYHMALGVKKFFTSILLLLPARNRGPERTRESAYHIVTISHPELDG
Protocol: The in vitro modulation of recombinant human GPR119 was determined as follows.
A human-mouse chimeric GPR119 expression construct encoding 3 copies of the FLAG epitope tag, the first 198 amino acids of human GPR119 and the C-terminal 137 amino acids of the mouse receptor was cloned into a tetracycline inducible vector pcDNA5/FRT/TO (Invitrogen #V6520-20), which includes a hygromycin-resistance marker. Tightly controlled receptor expression was achieved by stable integration of this construct into the genome of a specific host cell line, Flp-In-T-Rex-HEK293, expressing the tetracycline repressor (Invitrogen). Once a stable hygromycin-resistant cell line was generated, the cells were maintained at 37° C. in a humidified 5% CO2 atmosphere in culture medium consisting of Dulbecco's modified Eagle's medium (DMEM; Invitrogen #11960) supplemented with 2 mM L-glutamine, 10% fetal bovine serum, 200 μg/ml hygromycin B, and 15 μg/ml blasticidin.
Forty-eight hours prior to the cAMP accumulation assay, cells stably expressing the chimeric human/mouse GPR119 construct were seeded at a density of 4×10^3 cells/well in 384 well poly-D-lysine coated solid white plates (BD #35-6661) and grown at 37° C. in a humidified 5% CO2 atmosphere in culture medium supplemented with 1 μg/ml tetracycline to induce expression of the receptor. On the day of the assay, medium was removed and cells were incubated for 50 min. at 37° C. in a humidified 5% CO2 atmosphere in 20 μl/well of assay buffer (phosphate-buffered saline with Ca^2+ and Mg^2+, 12 mM glucose, 0.1 mM isobutyl-methyl-xanthine, 0.1% fatty-acid free bovine serum albumin) with the desired concentration of compound added from a concentrated stock dissolved in dimethyl sulfoxide (DMSO) to give a final concentration of 1% DMSO in the assay. cAMP accumulation was measured using the CisBio homogeneous time resolved fluorescence (HTRF) assay kit (#62AM2PEC) following the manufacturer's protocol. Briefly, 10 μl each of the cAMP-HTRF fluorescence detection reagents were added to each well, and the samples were incubated for 40 min. at room temperature. Fluorescence was excited at 320 nm and measured at 665 and 620 nm using the Envision instrument (Perkin Elmer), the fluorescence ratio of 665/620 was calculated and converted to nanomolar concentrations of cAMP in each well by interpolation from a cAMP standard curve. The concentration-response curves and EC50 values were calculated with a four parameter logistic curve fit equation utilizing Excel/XLfit software (Microsoft and IDBS). The EC50 value was calculated as the concentration of agonist which increased the cAMP concentration to a value halfway between the baseline and the maximum.
Compounds of the present invention were tested in the Tet-inducible cAMP assay described immediately above and the results shown in Table 5 below were obtained.

[2] = Metabolic stability in liver microsomes test; conditions: human, pH 7.4
Protocol: as §1, §2, §3, §4, §5

[3] = Flp-In-T-Rex-HEK293 cells expressing chimeric human/mouse GPR119, cAMP accumulation, read-out: GPR119 EC50

EC50 [1, 3] | SMILES | Minimally efficacious Dose (male C57BL/6J mice) | Glucose Lowering (male C57BL/6J mice) | half-life at 0.5 µM (in vitro) | EC50 [1] | reduction in glucose (male C57BL/6J mice; at the stated dose (0.1 mg/kg Example 1; 0.3 mg/kg Example 224 of WO 2009/012275 A1)) | half-life at 0.5 µM [2]
– | CS(=O)(=O)c1ccc(-n2cc(Cl)c(OC3CCN(c4ncc(C(F)(F)F)cn4)CC3)cc2=O)c(F)c1 [Example 2, 5-Chloro-1-(2-fluoro-4-(methylsulfonyl)phenyl)-4-(1-(5-(trifluoromethyl)pyrimidin-2-yl)piperidin-4-yloxy)pyridin-2 (1H)-one] | 0.1 mg/kg | −29% | 2.45 h | 12 nM | – | –
– | CS(=O)(=O)c1ccc(-n2cc(Cl)c(OC3CCN(c4ncc(C(F)(F)F)cn4)CC3)cc2=O)cc1 [Example 1, 5-Chloro-1-(4-(methylsulfonyl)phenyl)-4-(1-(5-(trifluoromethyl)pyrimidin-2-yl)piperidin-4-yloxy)pyridin-2(1H)-one] | 0.1 mg/kg | −24% | 3 h | 8 nM | 24% | –
8 nM | CCS(=O)(=O)c1ccc(-n2cc(Cl)c(OC3CCN(c4ncc(C(F)(F)F)cn4)CC3)cc2=O)c(F)c1 [Example 8, 5-Chloro-1-(4-(ethylsulfonyl)-2-fluorophenyl)-4-(1-(5-(trifluoromethyl)pyrimidin-2-yl)piperidin-4-yloxy)pyridin-2(1H)-one] | 0.03 mg/kg | −26% | 2 h | – | – | –
– | CS(=O)(=O)c1ccc(-n2cc(Cl)c(OC3CCN(c4ncc(Cl)cn4)CC3)cc2=O)c(F)c1 [Example 5, 5-Chloro-4-(1-(5-chloropyrimidin-2-yl)piperidin-4-yloxy)-1-(2-fluoro-4-(methylsulfonyl)phenyl)pyridin-2(1H)-one] | 0.06 mg/kg | −29% | 1.75 h | 3 nM | – | –
13 nM | CCS(=O)(=O)c1ccc(-n2cc(Cl)c(OC3CCN(c4ncc(C(F)(F)F)cn4)CC3)cc2=O)cc1F [Example 9, 5-Chloro-1-(4-(ethylsulfonyl)-3-fluorophenyl)-4-(1-(5-(trifluoromethyl)pyrimidin-2-yl)piperidin-4-yloxy)pyridin-2(1H)-one] | – | – | 1.47 h | – | – | –
– | CS(=O)(=O)c1ccc(-n2cc(Cl)c(OC3CCN(c4ncc(C(F)(F)F)cn4)CC3)cc2=O)cc1F [Example 3, 5-Chloro-1-(3-fluoro-4-(methylsulfonyl)phenyl)-4-(1-(5-(trifluoromethyl)pyrimidin-2-yl)piperidin-4-yloxy)pyridin-2(1H)-one] | 0.1 mg/kg | −28% | 1.8 h | 7 nM | – | –
– | CS(=O)(=O)c1ccc(-n2cc(Cl)c(OC3CCN(c4ncc(Cl)cn4)CC3)cc2=O)cc1 [Example 4, 5-Chloro-4-(1-(5-chloropyrimidin-2-yl)piperidin-4-yloxy)-1-(4-(methylsulfonyl)phenyl)pyridin-2(1H)-one] | 0.03 mg/kg | −24% | – | 5 nM | – | 0.95 h
2 nM | CCS(=O)(=O)c1ccc(-n2cc(Cl)c(OC3CCN(c4ncc(Cl)cn4)CC3)cc2=O)cc1 [Example 10, 5-Chloro-4-(1-(5-chloropyrimidin-2-yl)piperidin-4-yloxy)-1-(4-(ethylsulfonyl)phenyl)pyridin-2(1H)-one] | – | – | 0.583 h | – | – | –
6 nM | CCS(=O)(=O)c1ccc(-n2cc(Cl)c(OC3CCN(c4ncc(Cl)cn4)CC3)cc2=O)c(F)c1 [Example 11, 5-Chloro-4-(1-(5-chloropyrimidin-2-yl)piperidin-4-yloxy)-1-(4-(ethylsulfonyl)-2-fluorophenyl)pyridin-2(1H)-one] | – | – | 0.85 h | – | – | –
– | CS(=O)(=O)c1ccc(-n2cc(Cl)c(OC3CCN(c4ncc(Cl)cn4)CC3)cc2=O)cc1F [Example 6, 5-Chloro-4-(1-(5-chloropyrimidin-2-yl)piperidin-4-yloxy)-1-(3-fluoro-4-(methylsulfonyl)phenyl)pyridin-2(1H)-one] | 0.1 mg/kg | −36% | – | 4 nM | – | 0.65 h
